In ChEMBL document CHEMBL3822367, “Use of Photosensitizers in Semisolid Formulations for Microbial Photodynamic Inactivation” (2016) one finds Survival data, which are given here for 1 sequence.

The assay deals with Mycobacterium tuberculosis variant bovis BCG. The assay is described as follows: Antimycobacterial activity against Mycobacterium bovis BCG Pasteur ATCC 35734 assessed as cell survival at 5 uM after 1 hr followed by irradiation with light at 60 to 100 J/cm'2. The format is functional, organism-based.

Regarding VERTEPORFIN, the Survival was 26%.
